System: utrophin expression in human DMD myotubes
Assay: Utrophin Expression Assay in Human Myotubes
Assay type: cell-based
Details: 50 nM test compound
Experimental: Utrophin induction was determined by a method which was similar to a method of I. Courdier-Fruh et al., Neuromuscular Disord., 2002, 12, S95-S104.
Primary human muscle cell cultures were prepared from muscle biopsies taken during orthopedic surgery from Duchenne patients (provided by the Association Francaise contre les Myopathies). Cultures were prepared and maintained according to standard protocols. Induction of utrophin expression in human DMD myotubes was assayed at 50 nM or 500 nM of test compound added in differentiation medium. Normalized utrophin protein levels are determined after 5-6 d of incubation by cell-based ELISA with a mouse monoclonal antibody to the aminoterminal portion of utrophin (NCL-DRP2, Novocastra Laboratories). For calibration, the cell density and differentiation was determined by absorbance measurements of the total dehydrogenase enzyme activity in each well using the colorimetric CellTiter 96®AQ One Solution Reagent Proliferation Assay (Promega) according to the manufacturer's recommendation. […] Utrophin protein levels were determined immunologically with utrophin-specific primary antibody and with anappropriate peroxidase-coupled secondary antibody (Jackson ImmunoResearch Laboratories) using QuantaBlu™ Fluorogenic Peroxidase Substrate Kit (Pierce) for detection. […] The primary readout of this signal is presented in arbitrary units. […]

CCNC(=O)C(=O)C(Cc1ccc(OC)cc1)NC(=O)C(NC(=O)C(CCc1ccccc1)NC(=O)CCc1cccs1)C(C)C (centres unmarked) [Example 520]
UTR Induction @50 nM: 134%

CCNC(=O)C(=O)C(Cc1ccc(Cl)cc1)NC(=O)C(NC(=O)C(Cc1cccc2ccccc12)NC(=O)CCCCc1cccs1)C(C)C (centres unmarked) [Example 22]
UTR Induction @50 nM: 117%

Source: patent US20080058324A1, “Alpha-Keto Carbonyl Calpain Inhibitors” (SANTHERA PHARMACEUTICALS (SCHWEIZ) AG, priority 2004, published 2008)
